Where two headings read alike, the source gives them in different places.
What was measured:
Assay type in all cases: cell-based, human
PC3 = assay: Cell-growth inhibition (CellTiter); settings: PC3, 3 days, read-out: Cell Growth Inhibition GI50 ± SE
Procedure: (§1) Inhibition of cell growth was determined by using standard procedures. Cell lines were obtained from the NCI anticancer drug screen and maintained in DMEM medium supplemented with 10% fetal bovine serum. Growing cells were exposed to serial dilutions of each compound for 3 days. Cell growth was determined with CellTiter Assay Reagent (Promega), and growth parameters, including inhibition of growth, were measured by using the methods specified by the manufacturer.

M14 = assay: Cell-growth inhibition (CellTiter); settings: M14, 3 days, read-out: Cell Growth Inhibition GI50 ± SE
Procedure: as §1

A549 = assay: Cell-growth inhibition (CellTiter); settings: A549, 3 days, read-out: Cell Growth Inhibition GI50 ± SE
Procedure: as §1

OVCAR-4 = settings: for GI50: Homo sapiens
Procedure, shortened: (§2)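 Compounds were tested in the NCI 60-cell-line panel at five concentrations: 100 μM, 10 μM, 1 μM, 0.1 μM and 0.01 μM. For COMPARE analysis, TGI response levels were matched against those of established tubulin inhibitors previously run in the same screen.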

SW-620 = settings: for GI50: Homo sapiens
Procedure, shortened: as §2

NCI/ADR-RES = settings: for GI50: Homo sapiens
Procedure, shortened: as §2

DU-145 = system: DU-145
Procedure, shortened: (§3)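 Read-out: total growth inhibition (TGI) from a five-dose NCI-60 run spanning 0.01–100 μM. These TGI profiles were then compared by COMPARE analysis with those of reference tubulin-binding agents.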

KM12 = settings: for Log10GI50 / Log10LC50 / Log10TGI: KM12
Procedure, shortened: as §3

SF-268 = system: SF-268
Procedure, shortened: as §3

HCC-2998 = settings: for GI50: Homo sapiens
Procedure, shortened: as §2

SK-MEL-2 = settings: for GI50: Homo sapiens
Procedure, shortened: as §2

CCRF-CEM = settings: for GI50: Homo sapiens
Procedure, shortened: as §3

Structure (SMILES): COc1cc(C)c(-c2ccc(OC)c(=O)cc2C)c(OC)c1OC (single isomer, unassigned) [(aR)-6]
- GI50 (PC3): 1.5 ± 0.1 µM
- GI50 (M14): 1.1 ± 0.2 µM
- GI50 (A549): 2.1 ± 0.1 µM
- Log10GI50 (OVCAR-4): -4.35 Molar
- Log10LC50 (OVCAR-4): > -4.00 Molar
- Log10TGI (OVCAR-4): > -4.00 Molar
- GI50 (OVCAR-4): 44.7 µM
- Log10GI50 (OVCAR-4; listed as (aR)-DM-MTC): -4.35 Molar
- Log10GI50 (SW-620): -5.91 Molar
- Log10LC50 (SW-620): > -4.00 Molar
- Log10TGI (SW-620): > -4.00 Molar
- GI50 (SW-620): 1.23 µM
- Log10GI50 (SW-620; listed as (aR)-DM-MTC): -5.91 Molar
- Log10GI50 (NCI/ADR-RES): -5.76 Molar
- Log10LC50 (NCI/ADR-RES): > -4.00 Molar
- GI50 (NCI/ADR-RES): 1.74 µM
- Log10GI50 (NCI/ADR-RES; listed as (aR)-DM-MTC): -5.76 Molar
- Log10GI50 (DU-145): -5.45 Molar
- Log10LC50 (DU-145): > -4.00 Molar
- Log10TGI (DU-145): > -4.00 Molar
- GI50 (DU-145; Homo sapiens): 3.55 µM
- Log10GI50 (DU-145; listed as (aR)-DM-MTC): -5.45 Molar
- GI50 (KM12; Homo sapiens, KM12 (printed KM29)): 1.62 µM
- Log10GI50 (KM12): -5.79 Molar
- Log10LC50 (KM12): > -4.00 Molar
- Log10TGI (KM12): > -4.00 Molar
- Log10GI50 (KM12; listed as (aR)-DM-MTC): -5.79 Molar
- Log10GI50 (SF-268): -5.26 Molar
- Log10LC50 (SF-268): > -4.00 Molar
- Log10TGI (SF-268): > -4.00 Molar
- GI50 (SF-268; Homo sapiens): 5.5 µM
- Log10GI50 (SF-268; listed as (aR)-DM-MTC): -5.26 Molar
- Log10GI50 (HCC-2998): -5.55 Molar
- Log10LC50 (HCC-2998): > -4.00 Molar
- Log10TGI (HCC-2998): > -4.00 Molar
- GI50 (HCC-2998): 2.82 µM
- Log10GI50 (HCC-2998; listed as (aR)-DM-MTC): -5.55 Molar
- Log10GI50 (SK-MEL-2): -6.05 Molar
- Log10LC50 (SK-MEL-2): > -4.00 Molar
- Log10TGI (SK-MEL-2): -5.18 Molar
- GI50 (SK-MEL-2): 0.89 µM
- Log10GI50 (SK-MEL-2; listed as (aR)-DM-MTC): -6.05 Molar
- Log10GI50 (CCRF-CEM): -5.71 Molar
- Log10LC50 (CCRF-CEM): > -4.00 Molar
- Log10TGI (CCRF-CEM): > -4.00 Molar
- GI50 (CCRF-CEM): 1.95 µM
- Log10GI50 (CCRF-CEM; listed as (aR)-DM-MTC): -5.71 Molar

Structure (SMILES): COc1cc(C)c(-c2ccc(=O)c(OC)cc2C)c(OC)c1OC (single isomer, unassigned) [(aR)-iso-6]
- GI50 (PC3): > 20 µM
- GI50 (M14): > 20 µM
- GI50 (A549): > 20 µM
- Log10GI50 (OVCAR-4): > -4.00 Molar
- Log10LC50 (OVCAR-4): > -4.00 Molar
- Log10TGI (OVCAR-4): > -4.00 Molar
- Log10GI50 (SW-620): > -4.00 Molar
- Log10LC50 (SW-620): > -4.00 Molar
- Log10TGI (SW-620): > -4.00 Molar
- Log10GI50 (NCI/ADR-RES): > -4.00 Molar
- Log10LC50 (NCI/ADR-RES): > -4.00 Molar
- Log10TGI (NCI/ADR-RES): > -4.00 Molar
- Log10GI50 (HCC-2998): > -4.00 Molar
- Log10LC50 (HCC-2998): > -4.00 Molar
- Log10TGI (HCC-2998): > -4.00 Molar
- Log10GI50 (SK-MEL-2): > -4.00 Molar
- Log10LC50 (SK-MEL-2): > -4.00 Molar
- Log10TGI (SK-MEL-2): > -4.00 Molar
- Log10GI50 (CCRF-CEM): > -4.00 Molar
- Log10LC50 (CCRF-CEM): > -4.00 Molar
- Log10TGI (CCRF-CEM): > -4.00 Molar

Structure (SMILES): COc1cc(C)c(-c2ccc(OC)c(=O)cc2C)c(OC)c1OC (single isomer, unassigned) [(aS)-6]
- GI50 (PC3): > 20 µM
- GI50 (M14): > 20 µM
- GI50 (A549): > 20 µM
- Log10GI50 (OVCAR-4): > -4.00 Molar
- Log10LC50 (OVCAR-4): > -4.00 Molar
- Log10TGI (OVCAR-4): > -4.00 Molar
- Log10GI50 (SW-620): > -4.00 Molar
- Log10LC50 (SW-620): > -4.00 Molar
- Log10TGI (SW-620): > -4.00 Molar
- Log10GI50 (NCI/ADR-RES): > -4.00 Molar
- Log10LC50 (NCI/ADR-RES): > -4.00 Molar
- Log10TGI (NCI/ADR-RES): > -4.00 Molar
- Log10GI50 (DU-145): > -4.00 Molar
- Log10LC50 (DU-145): > -4.00 Molar
- Log10TGI (DU-145): > -4.00 Molar
- Log10GI50 (KM12): > -4.00 Molar
- Log10LC50 (KM12): > -4.00 Molar
- Log10TGI (KM12): > -4.00 Molar
- Log10GI50 (SF-268): > -4.00 Molar
- Log10LC50 (SF-268): > -4.00 Molar
- Log10TGI (SF-268): > -4.00 Molar
- Log10GI50 (HCC-2998): > -4.00 Molar
- Log10LC50 (HCC-2998): > -4.00 Molar
- Log10TGI (HCC-2998): > -4.00 Molar
- Log10GI50 (SK-MEL-2): > -4.00 Molar
- Log10LC50 (SK-MEL-2): > -4.00 Molar
- Log10TGI (SK-MEL-2): > -4.00 Molar
- Log10GI50 (CCRF-CEM): > -4.00 Molar
- Log10LC50 (CCRF-CEM): > -4.00 Molar
- Log10TGI (CCRF-CEM): > -4.00 Molar

Structure (SMILES): COc1cc(C)c(-c2ccc(=O)c(OC)cc2C)c(OC)c1OC (single isomer, unassigned) [(aS)-iso-6]
- GI50 (PC3; Homo sapiens, PC-3, 72 h): > 20 µM
- GI50 (M14; Homo sapiens, M14, 72 h): > 20 µM
- GI50 (A549; Homo sapiens, A549, 72 h): > 20 µM
- Log10GI50 (OVCAR-4): -4.04 Molar
- Log10LC50 (OVCAR-4): > -4.00 Molar
- Log10TGI (OVCAR-4): > -4.00 Molar
- GI50 (OVCAR-4): 91.2 µM
- Log10GI50 (OVCAR-4; […]): -4.04 Molar
- Log10GI50 (SW-620): -4.55 Molar
- Log10LC50 (SW-620): > -4.00 Molar
- Log10TGI (SW-620): > -4.00 Molar
- GI50 (SW-620): 30.9 µM
- Log10GI50 (SW-620; […]): -4.51 Molar
- Log10GI50 (NCI/ADR-RES): -4.55 Molar
- Log10LC50 (NCI/ADR-RES): > -4.00 Molar
- Log10TGI (NCI/ADR-RES): > -4.00 Molar
- GI50 (NCI/ADR-RES): 28.2 µM
- Log10GI50 (NCI/ADR-RES; […]): -4.55 Molar
- Log10GI50 (HCC-2998): -4.48 Molar
- Log10LC50 (HCC-2998): > -4.00 Molar
- Log10TGI (HCC-2998): > -4.00 Molar
- GI50 (HCC-2998): 33.1 µM
- Log10GI50 (HCC-2998; […]): -4.48 Molar
- Log10GI50 (SK-MEL-2): -4.69 Molar
- Log10LC50 (SK-MEL-2): > -4.00 Molar
- Log10TGI (SK-MEL-2): > -4.00 Molar
- GI50 (SK-MEL-2): 20.4 µM
- Log10GI50 (SK-MEL-2; […]): -4.69 Molar
- Log10GI50 (CCRF-CEM): -4.53 Molar
- Log10LC50 (CCRF-CEM): > -4.00 Molar
- Log10TGI (CCRF-CEM): > -4.00 Molar
- GI50 (CCRF-CEM): 29.5 µM
- Log10GI50 (CCRF-CEM; […]): -4.53 Molar

Source: publication PMC12150326 (The Journal of Organic Chemistry, 2025)
